From the supplement of paper PMC10307832

Columns and labels:
Test in all cases: relative viability (nuclei count vs DMSO), 5 days (fraction); higher = more cells survive
[1] = compound: C1=CC=C2C(=C1)N=C(S2)C(C#N)C3=NC(=NC=C3)NCCC4=CN=CC=C4 + O=C(c1cc(Cc2n[nH]c(=O)c3ccccc23)ccc1F)N1CCN(C(=O)C2CC2)CC1 [Olaparib] (partner 8 µM)
How it was run: (§1)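 Each reported value is a median over duplicate plates. It expresses relative viability: treated-well nuclei count divided by vehicle-well nuclei count. Lung cancer cell lines in 1536-well plates were dosed by pin tool a day after seeding, alone with one drug or with a fixed anchor-drug dose plus five library-drug doses (not always all listed) in √10 steps, and nuclei were counted after 5 days.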

[2] = compound: C1=CC=C2C(=C1)N=C(S2)C(C#N)C3=NC(=NC=C3)NCCC4=CN=CC=C4 + Nc1nc2[nH]cc(CCc3ccc(C(=O)N[C@@H](CCC(=O)O)C(=O)O)cc3)c2c(=O)[nH]1 [Pemetrexed] (partner 0.2 µM)
How it was run: as §1

[3] = compound: C1=CC=C2C(=C1)N=C(S2)C(C#N)C3=NC(=NC=C3)NCCC4=CN=CC=C4 + COc1cccc2cc(-c3nc([C@H]4CC[C@H](C(=O)O)CC4)n4ncnc(N)c34)[nH]c12 [OSI-027] (partner 0.5 µM)
How it was run: as §1

Vandetanib + Decitabine = compound: COc1cc2/c(=N/c3ccc(Br)cc3F)nc[nH]c2cc1OCC1CCN(C)CC1 [Vandetanib] + Nc1ncn([C@H]2C[C@H](O)[C@@H](CO)O2)c(=O)n1 [Decitabine] (partner 2 µM)
How it was run: as §1

UMC-11
relative viability ([1]; first compound 0.01581 µM): 0.344
relative viability ([1]; first compound 0.05 µM): 0.349
relative viability ([1]; first compound 0.1581 µM): 0.366
relative viability ([1]; first compound 0.5 µM): 0.382
relative viability ([2]; first compound 0.01581 µM): 0.79
relative viability ([2]; first compound 0.05 µM): 0.769
relative viability ([2]; first compound 0.1581 µM): 0.94
relative viability ([2]; first compound 0.5 µM): 0.771
relative viability ([3]; first compound 0.005 µM): 0.408
relative viability ([3]; first compound 0.01581 µM): 0.493
relative viability ([3]; first compound 0.05 µM): 0.445
relative viability ([3]; first compound 0.1581 µM): 0.468
relative viability ([3]; first compound 0.5 µM): 0.35
relative viability (Vandetanib + Decitabine; first compound 0.02 µM): 0.595
relative viability (Vandetanib + Decitabine; first compound 0.06325 µM): 0.553
relative viability (Vandetanib + Decitabine; first compound 0.2 µM): 0.665
relative viability (Vandetanib + Decitabine; first compound 0.6325 µM): 0.528
relative viability (Vandetanib + Decitabine; first compound 2 µM): 0.614
